Results on 6 molecules are retold here after patent publication US20120142627A1, “MONOPHOSPHATE PRODRUGS OF DAPD AND ANALOGS THEREOF” (Emory University, priority 2010, published 2012).

One data set concerns PBM cells. The data set is described as follows: Intracellular metabolites (DXG-TP, DAPD-TP) in PBM cells. The data set is classed as in vitro ADME, human. Conditions: for DXG-TP levels: PBM cells incubated for 4 h at 50 µM, mean and S.D.; for intracellular DXG-TP detected (in words) / intracellular phosphorylated DAPD / DAPD-TP detected (in words): PBM cells, 50 μM, 4 h, 37° C. As for the experimental part: Reexamination of the intracellular metabolism of DAPD, which contains a 6-amino group, at 50 μM for 4 h in PBM cells at 37° C. resulted the detection of high levels of DXG-TP in addition to DXG and DXG-MP.
PBM cells were incubated with the corresponding compounds for 4 h […]. The data plotted represent the mean value and S.D. of experiments with PBM cells.

Another data set concerns adenosine deaminase. The data set can be described thus: Adenosine deaminase assay. The class given is biochemical. As to conditions: 7 minutes, 0.002 units of enzyme, 50 μM, pH 7.4, 25° C. As for the experimental part:
To determine the propensity for deamination of the 6-substituted-2-amino purine dioxolane monophosphate prodrugs by adenosine deaminase, nucleoside compounds were incubated with the commercially available purified enzyme, and the reaction was followed spectrophotometrically. Reaction conditions were 50 mM potassium phosphate, pH 7.4, with 50 μM nucleoside analog in 0.5 mL at 25° C. Reaction time was 7 minutes with 0.002 units of enzyme and 120 minutes with 0.2 units of enzyme. (The unit definition of adenosine deaminase is one unit will deaminate 1.0 μmol of adenosine to inosine per minute at pH 7.5 at 25° C.) Deoxyadenosine was the positive control which was 59% deaminated under the given conditions in 7 minutes with 0.002 units of enzyme. Deoxyguanosine was the negative control. Optical density was measured at 265 nm or 285 nm. The difference in optical density between the beginning and the end of the experiment was divided by the extinction coefficient then multiplied by the volume of the reaction to determine the number of mols of substrate transformed into product. Mols of product were divided by mols of substrate equivalent to a 100% complete reaction then multiplied by 100 to obtain percent deamination. The limit of detection was 0.001 optical density units.

Another data set has as its system human PBM cells. The data set is described as follows: Cytotoxicity in human PBM cells. The data set is classed as cell-based. As for the experimental part: v) Cellular Toxicity Assays: 6-Substituted-2-amino purine dioxolane monophosphate prodrugs were evaluated for their potential toxic effects on P4/R5 cells, MT-2 cells and uninfected PHA-stimulated human PBM cell. Log-phase P4/R5, MT-2, and PHA-stimulated human PBM cells were seeded at 5×10^3 to 5×10^4 cells/well in 96-well cell culture plates containing 10-fold serial dilutions of the test drug. The cultures were incubated for 2-4 days, after which 3-(4,5-dimethylthiazol-2-yl)-2,5-diphenyltetrazolium bromide (MIT) dye solution (Promega, Madison, Wis.) were added to each well and incubated overnight. The reaction was stopped with stop solubilization solution (Promega, Madison, Wis.) and plates were read at a wavelength of 570 nm.

The subject of another data set is Vero cells. The data set is described as follows: Cytotoxicity in Vero cells. Conditions: Chlorocebus sabaeus, read-out: Vero IC50.
The subject of data set [1] is CEM (human lymphoblastoid) cells. The data set can be described thus: Cytotoxicity in CEM cells. Conditions: Lymphoblastoid cell, read-out: CEM IC50.
Excerpt: (§1) The toxicity of the compounds can be assessed in Vero, human PBM, CEM (human lymphoblastoid), MT-2, and HepG2 cells, as described previously (see Schinazi R. F., Sommadossi J.-P., Saalmann V., Cannon D. L., Xie M.-Y., Hart G. C., Smith G. A. & Hahn E. F. Antimicrob. Agents Chemother. 1990, 34, 1061-67). Cycloheximide can be included as positive cytotoxic control, and untreated cells exposed to solvent can be included as negative controls. The cytotoxicity IC50 can be obtained from the concentration-response curve using the median effective method described previously (see Chou T.-C. & Talalay P. Adv. Enzyme Regul. 1984, 22, 27-55; Belen'kii M. S. & Schinazi R. F. Antiviral Res. 1994, 25, 1-11).
A further data set deals with HIV-1LAI. The data set is described as follows: Anti-HIV (in PBM cells) assay. As to conditions: Human immunodeficiency virus 1, PBMC; for EC50: read-out: HIV EC50; for EC90: read-out: HIV EC90. The data set is classed as cell-based. As for the experimental part:
Stock solutions (20-40 mM) of the compounds were prepared in sterile DMSO and then diluted to the desired concentration in growth medium. Cells were infected with the prototype HIV-1LAI at a multiplicity of infection of 0.01. Virus obtained from the cell supernatant was quantified on day 6 after infection by a reverse transcriptase assay using (rA)n.(dT)12-18 as template-primer. The DMSO present in the diluted solution (<0.1%) had no effect on the virus yield. AZT was included as positive control.

For data set [2], the system named is PHA-stimulated human PBMCs and CEM cells. As to conditions: cited from earlier work.

Each structure is given as a SMILES string. Like-named read-outs stand apart in the source and are kept apart here.

Excerpt for Vero cells: as §1

As to `Nc1nc2c(ncn2[C@H]2CO[C@@H](CO)O2)c(=O)[nH]1` [DXG, (−)-β-D-dioxolane guanine], in the data set with PBM cells, the DXG-TP levels worked out at 1.75 ± 0.07 pmol/10^6 cells.
In the case of `Nc1ncnc2c1ncn2[C@H]1C[C@H](O)[C@@H](CO)O1` [Deoxyadenosine], the “percent deaminated by adenosine deaminase” value in the data set on adenosine deaminase is 59%.
Turning to `Nc1nc(Cl)c2ncn(C3COC(CO)O3)c2n1` (centres unmarked) [6-Cl-DXG], the DXG-TP levels with PBM cells came out at 0.10 pmol/10^6 cells.
Still for that read-out and setting: in the case of `COc1nc(N)nc2c1ncn2C1COC(CO)O1` (centres unmarked) [6-OMe-DXG] it was 0.55 pmol/10^6 cells.
Usually IC50 stands for the concentration needed to halve the response being measured. The EC50 is the concentration that produces a half-maximal response. The term EC90 denotes the point of the concentration-response curve where the effect stands at 90%. On to `CCOC(=O)[C@H](C)NP(=O)(OC[C@@H]1OC[C@H](n2cnc3c(N)nc(N)nc32)O1)Oc1ccccc1` (some centres unmarked) [RS-864], for which the “PBM IC50 (printed as % @ 100 μM)” value in the data set on human PBM cells (@ 100 μM) was determined as 66.5%. In the data set on PBM cells, the “intracellular DXG-TP detected (in words)” value is “low levels” and the “intracellular phosphorylated DAPD / DAPD-TP detected (in words)” value is listed as “very high levels”. In the data set with Vero cells, the concentration for half-maximal inhibition (IC50) is more than 100 µM. Moreover, the concentration for half-maximal inhibition (IC50) in data set [1] was more than 100 µM. In the data set on HIV-1LAI, the EC50 amounted to 0.24 µM and the concentration for an effect of 90% (EC90) came out at 1.3 µM.
`Nc1nc(N)c2ncn([C@H]3CO[C@@H](CO)O3)c2n1` [DAPD]: the IC50 in the data set with human PBM cells (Homo sapiens, PBMC, cytotoxicity) was more than 100 µM. Moreover, in the data set on PBM cells, the “intracellular DXG-TP detected (in words)” value is on record as “high levels” and the “intracellular phosphorylated DAPD / DAPD-TP detected (in words)” value was “no phosphorylated forms of DAPD were detected”. The IC50 in the data set with Vero cells is more than 100 µM. For the same molecule, the IC50 in data set [1] was more than 100 µM. Further, the “DAPD level in PBMCs relative to CEM cells” value in data set [2] is 27 fold. Moreover, the “phosphorylation of DAPD to mono-, di-, or triphosphate forms” value in data set [2] (either cell type) is reported as “No phosphorylation”. For the same molecule, in the data set with HIV-1LAI (human PBM cells), the EC50 was 1 µM and the EC90 amounted to 6.5 µM.
